We go through three molecules from patent US7514240B2, “EGR-EGFR complex” (Japan Science and Technology Agency, priority 2002, dated 2009).

The IC50 is the concentration that inhibits the measured activity by half. A higher IC50 goes with lower potency.

One test concerns the target T1, EGFR (A431 cell) (Homo sapiens, UniProt P00533).
T1 construct: host or cells: A431 cells
Nature of the test: EGF-EGFR binding inhibition assay (Eu-EGF, A431 cells, DELFIA time-resolved fluorescence). The note with it: Eu-EGF 5 nmol/L, compounds at 1, 3, 10 and 30 μg/mL, nonlinear least square fitting. How it is done:
A431 cells (human squamous cell carcinoma cells, purchased from ATCC) for use in this experiment were subcultured using a medium (hereinafter denoted as a medium) prepared by adding inactivated FBS (JRH), Penicillin-streptmycin (GIBCO), and Amphotelicin B (Sigma) at final concentrations of 10 vol %, 50 U/mL-50 μg/mL, and 1 μg/mL, respectively, to DMEM (Sigma). A431 cells suspended in the medium were inoculated into a 96-well microtiter plate (black, COSTAR) at 10,000 cells/100 μL/well, and then pre-cultured overnight in a CO2 incubator (37° C., 5% CO2). After the media within the wells had been completely removed, the wells were washed once in 50 mmol/L HEPES-HCl (pH 7.8, hereinafter denoted as a Buffer) containing 138 mmol/L NaCl, 5 mmol/L KCl, 1.2 mmol/L MgSO4, 1.2 mmol/L CaCl2, 75 μmol/L EDTA and 0.2 vol % BSA, and then a Buffer was added at 49 μL/well. Subsequently, DMSO was added at 1 μL/well, and then Eu-EGF that had been diluted with a Buffer at various concentrations were added at 50 μL/well. The plate was incubated at room temperature for 1 hour, washed 5 times with an ice-cold buffer (200 μL/well), and then a DELFIA enhancement reagent (PerkinElmer life sciences) was added at 100 μL/well. After further 30 minutes of incubation at room temperature, time-resolved fluorescence was measured using a plate reader (ARVO-sx, PerkinElmer life sciences). Excitation wavelength and emission wavelength used herein were 340 nm and 615 nm, respectively.
A value of specific binding was calculated by subtracting a measured value of non-specific binding from a value measured at each ligand concentration. […]
A representative compounds for site 1 of 2) in Example 6, a representative compounds for site 2 of 2) in Example 6, and a representative compounds for site 3 of 1) in Example 6 were subjected to this assay. […] After 30 minutes of incubation at room temperature, time-resolved fluorescence was measured using a plate reader (ARVO-sx, PerkinElmer life sciences). […] Assay was run in duplicate, and then data were processed using each average measured value. […]

The target in test [1] is T2, EGF receptor of A431 cells (Homo sapiens, UniProt P00533).
T2 construct: endogenous in cells; host or cells: A431 cells
T2 sequence (P00533 25-1210): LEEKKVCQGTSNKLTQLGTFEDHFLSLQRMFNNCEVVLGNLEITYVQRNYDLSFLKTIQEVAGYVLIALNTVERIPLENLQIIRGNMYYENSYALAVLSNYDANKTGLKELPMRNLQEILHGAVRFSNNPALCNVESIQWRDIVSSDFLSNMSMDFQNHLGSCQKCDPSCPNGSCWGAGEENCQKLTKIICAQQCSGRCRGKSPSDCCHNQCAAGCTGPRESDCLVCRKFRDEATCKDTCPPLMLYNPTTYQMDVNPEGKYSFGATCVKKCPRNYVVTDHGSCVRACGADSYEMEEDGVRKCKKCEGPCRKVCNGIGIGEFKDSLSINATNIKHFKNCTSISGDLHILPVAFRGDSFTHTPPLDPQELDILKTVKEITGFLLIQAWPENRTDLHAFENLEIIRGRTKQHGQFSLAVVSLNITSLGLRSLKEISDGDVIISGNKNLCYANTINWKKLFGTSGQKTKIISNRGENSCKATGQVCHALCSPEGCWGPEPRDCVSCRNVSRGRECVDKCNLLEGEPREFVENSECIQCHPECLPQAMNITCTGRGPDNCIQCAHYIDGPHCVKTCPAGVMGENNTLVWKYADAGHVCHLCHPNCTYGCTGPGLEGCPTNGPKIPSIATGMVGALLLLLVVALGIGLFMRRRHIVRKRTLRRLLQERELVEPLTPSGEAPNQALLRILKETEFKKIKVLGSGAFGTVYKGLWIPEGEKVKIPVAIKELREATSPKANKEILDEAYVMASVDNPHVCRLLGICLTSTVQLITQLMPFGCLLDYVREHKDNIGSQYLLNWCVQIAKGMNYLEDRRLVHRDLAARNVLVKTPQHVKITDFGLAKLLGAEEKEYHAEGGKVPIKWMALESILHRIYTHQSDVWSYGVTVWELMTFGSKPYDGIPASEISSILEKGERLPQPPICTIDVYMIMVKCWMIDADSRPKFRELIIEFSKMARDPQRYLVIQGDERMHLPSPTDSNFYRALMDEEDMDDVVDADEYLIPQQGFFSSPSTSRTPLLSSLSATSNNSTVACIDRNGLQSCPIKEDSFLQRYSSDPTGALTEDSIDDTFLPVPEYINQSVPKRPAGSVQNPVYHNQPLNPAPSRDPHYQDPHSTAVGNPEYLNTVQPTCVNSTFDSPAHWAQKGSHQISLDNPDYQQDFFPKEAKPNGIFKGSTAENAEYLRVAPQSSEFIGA
Description: EGFR antagonist activity using EGFR phosphorylation as an index (western blotting). The format is cell-based. Conditions: EGF 100 ng/mL. How it is done:
When EGFR is activated by binding of a ligand, intracellular regions are phosphorylated. This phosphorylation is detectable using a phosphorylated receptor-specific antibody. A431 cells were cultured (BNR-110M, ESPEC CORP.) using Dulbecco's Modified Eagle's Medium (Sigma) containing 10% fetal calf serum (JRH Bioscience) under an environment of 5% CO2 at 37° C. for 1 day. The cells were then cultured in a serum-free medium for 1 day. When agonist activity was assayed, a medium containing a sample at a concentration of 10 μg/mL was added, and then the resultant was allowed to stand for 10 minutes. Furthermore, when antagonist activity was assayed, a medium containing a sample at a concentration of 10 μg/mL or 100 μg/mL was added, and then the resultant was allowed to stand for 20 minutes. […] The media were removed, the cells were washed with cooled phosphate buffered saline (PBS, Sigma), and then a heated cell lysis buffer (125 mmol/L Tris (Wako Pure Chemical Industries, Ltd.)-hydrochloric acid (Wako Pure Chemical Industries, Ltd.) buffer (pH 6.8) containing 20% glycerol (Wako Pure Chemical Industries, Ltd.), 2% SDS (Sigma), 5% 2-Mercaptoethanol (Sigma), and 0.025 mg/mL Bromo Phenol Blue (Sigma)) was added, thereby obtaining a cell lysate solution. The obtained cell lysate was applied to 7.5% polyacrylamide gel (e-PAGEL, ATTO Corporation), and then subjected to separation by electrophoresis (AE-6400, ATTO Corporation) under a condition of 30 mA per sheet of gel using Tris/glycine/SDS buffer (Bio-Rad Laboratories, Inc.). The resultant was transferred to a polyvinylidene difluoride (PVDF) membrane (clear blot membrane-P, ATTO Corporation) under conditions of 200 mA for 1 hour using semi-dry blotting system (AE-6675, ATTO Corporation). The PVDF membrane was blocked using PBS containing 5% skim milk (Wako Pure Chemical Industries, Ltd.) at room temperature for 1 hour.
In general terms: In western blotting, separated proteins are transferred to a membrane and probed.

SMILES strings stand for the structures.

T1 sequence (P00533 25-1210): as above

Turning to `CN1CCN(CCCN2c3ccccc3Sc3ccc(C(F)(F)F)cc32)CC1.Cl.Cl` [10-[3-(4-methyl-piperazine-1-yl)-propyl]-2-trifluoromethyl-10H-phenothiazine dihydrochloride], the IC50 at EGFR (A431 cell) was 16.7 µM. Moreover, the “inhibition of activation of the EGF receptor due to EGF (EGFR phosphorylation)” value (shortened to “inhibition”) in test [1] (sample 10 μg/mL) was “inhibited activation of the EGF receptor”.

With `CCc1cc2c(cc1C(=O)CSc1ncccc1C(=O)O)C(C)(C)CCC2(C)C` [2-[2-(3-ethyl-5,5,8,8-tetramethyl-5,6,7,8-tetrahydro-naphthalene-2-yl)-2-oxo-ethylsulfanyl]-nicotinic acid], the IC50 on EGFR (A431 cell) is 57.8 µM. In test [1] (sample 100 μg/mL), the “inhibition” value is recorded as “inhibited activation of the EGF receptor”.

For `CCCCCCSc1nc2c(c(=O)[nH]c(=O)n2C)n1CCC` [8-hexylsulfanyl-3-methyl-7-propyl-3,7-dihydro-purine-2,6-dione], the IC50 on EGFR (A431 cell) was 40.1 µM. In test [1] (sample 10 μg/mL), the “inhibition” value is “inhibited activation of the EGF receptor”.
